Our source for the inhibition and weed inhibition rate values is patent US20260327240A1, “1,4-CINEOLE DERIVATIVE AND INTERMEDIATE THEREOF, HERBICIDE CONTAINING SAID DERIVATIVE AS ACTIVE INGREDIENT, METHOD FOR USING HERBICIDE, AND METHOD FOR PREPARING AGROCHEMICAL COMPOSITION” (HOKKO CHEMICAL INDUSTRY CO., LTD., priority 2023, published 2026).

Where only a bound is given, the exact number is not on record here.

Holding throughout (assay type): in vivo
The subject of assay [1] is Echinochloa crus-galli var. formosensis. In words: Comparative Example: herbicidal effect test by application during growth period of paddy rice (three-leaf stage). The note with it: 504 h, 7.5 g per 10 ares, 21 days after application, triplicate, read-out: Weed inhibition rate (%). On the procedure: As an example, the herbicidal effect on Echinochloa crus-galli var. formosensis at the three-leaf stage was confirmed by the following method, and the results are specifically shown in Table 7 as a comparative example.
(§1) Herbicidal Effect Test by Application During Growth Period of Paddy Rice
Wagner pots with an area of […] were filled with paddy soil, followed by addition of water and incorporation of chemical fertilizer (N:P:K=16:16:16), after which puddling was performed. After that, 30 seeds of Echinochloa crus-galli var. formosensis were sown at a depth of 0 cm to 1 cm. Immediately after sowing, the pots were flooded and a water depth of approximately 3 cm was maintained. Subsequent management was conducted in a glass greenhouse. When Echinochloa crus-galli var. formosensis reached the three-leaf stage, an emulsifiable concentrate prepared according to Formulation Example 5 using the compound shown below was diluted with water, and a specified amount of the diluted solution was applied by dropper. The amount of the active ingredient to be applied was equivalent to 7.5 g per 10 ares. The test was conducted in triplicate for each chemical concentration group, and the weed inhibition rate (%) was determined 21 days after chemical application using the following formula (Math. 1).

For assay [2], the system named is Amaranthus viridis. Nature of the assay: Test Example 3: herbicidal effect test by soil application in upland field. To be noted: 1 day after sowing, 120 g per 10 ares, 14 days after application. On the procedure: (§2) Herbicidal Effect Test by Soil Application in Upland Field
(§3) Pots with an area of 36 cm^2 were filled with upland soil (alluvial loam), twenty seeds each of weeds of Digitaria ciliaris, Echinochloa crus-galli, Chenopodium album, and Amaranthus viridis were uniformly mixed with the top 1 cm layer of soil and the surface was lightly pressed down. One day after sowing, an emulsifiable concentrate prepared according to Formulation Example 5 using the compound shown below was diluted with water, and the diluted solution was sprayed onto the soil surface at a rate of 100 liters per 10 ares. The amount of the active ingredient to be applied was equivalent to 120 g per 10 ares. Fourteen days after chemical application, the herbicidal effect was evaluated according to the same criteria as in Test Example 1.

Assay [3] deals with Echinochloa crus-galli. The assay is described as above. To be noted: 1 day after sowing, 120 g per 10 ares, 14 days after application. On the procedure:
as §2, §3

The subject of assay [4] is Chenopodium album. The description is as above. The note with it: 1 day after sowing, 120 g per 10 ares, 14 days after application. On the procedure: as §2, §3
Assay [5] has as its system Digitaria ciliaris. The description is as above. The note with it: 1 day after sowing, 120 g per 10 ares, 14 days after application. As to the method: as §2, §3
Assay [6] has as its system Echinochloa crus-galli. In words: Test Example 8: herbicidal effect test by stem and leaf treatment in upland field. The note with it: 7 days after sowing, 7.5 g per 10 ares, 14 days after application. On the procedure:
(§4) Herbicidal Effect Test by Stem and Leaf Treatment in Upland Field
as §3, with “Seven days” for “One day”, “7.5” for “120”

The subject of assay [7] is Amaranthus viridis. In words: Test Example 7: herbicidal effect test by soil application in upland field. To be noted: 1 day after sowing, 7.5 g per 10 ares, 14 days after application. On the procedure:
as §2
as §3, with “7.5” for “120”

Assay [8] has as its system Echinochloa crus-galli. The assay is described as above. The note with it: 1 day after sowing, 7.5 g per 10 ares, 14 days after application. On the procedure:
as §2
as §3, with “7.5” for “120”

The test system of assay [9] is Echinochloa crus-galli var. formosensis. In words: Test Example 5: herbicidal effect test by soil application in paddy rice. The note with it: 7.5 g per 10 ares, 14 days after application. On the procedure: (§5) Herbicidal Effect Test by Soil Application in Paddy Rice
(§6) Wagner pots with an area of […] were filled with paddy soil, followed by addition of water and incorporation of chemical fertilizer (N:P:K=16:16:16), after which puddling was performed. After that, seeds of Echinochloa crus-galli var. formosensis, broad-leaved weeds (Lindemia pyxidaria, and Monochoria vaginalis), and Scirpus juncoides were sown at a depth of 0 cm to 1 cm, 30 seeds each. Immediately after sowing, the pots were flooded and a water depth of approximately 3 cm was maintained. Subsequent management was conducted in a glass greenhouse. Immediately thereafter, an emulsifiable concentrate prepared according to Formulation Example 5 using the compound shown below was diluted with water, and a specified amount of the diluted solution was applied by dropper. The amount of the active ingredient to be applied was equivalent to 7.5 g per 10 ares.
(§7) The present test was conducted in duplicate for each chemical concentration group, and the herbicidal effect was evaluated 14 days after chemical application using the same criteria as in Test Example 1.

The subject of assay [10] is Scirpus juncoides. The description is as above. To be noted: 7.5 g per 10 ares, 14 days after application. As to the method: as §5, §6, §7
The test system of assay [11] is Echinochloa crus-galli var. formosensis. Nature of the assay: Test Example 2: herbicidal effect test by application during growth period of paddy rice. The note with it: 7 days after sowing, 120 g per 10 ares, 14 days after application. As to the method:
as §1
as §6, with “Seven days after sowing,” for “Immediately thereafter,”, “120” for “7.5”, “ares. The test was conducted in duplicate for each chemical concentration group, and the herbicidal effect was evaluated 14 days after chemical application using the same criteria as in Test Example 1.” for “ares.”

The test system is the same in assay [12]. Nature of the assay: Test Example 1: herbicidal effect test by soil application in paddy rice. To be noted: 120 g per 10 ares, 14 days after application. On the procedure: as §5
as §6, with “(Lindernia pyxidaria” for “(Lindemia pyxidaria,”, “120” for “7.5”
(§8) The present test was conducted in duplicate for each chemical concentration group, and the weed inhibition rate (%) was determined 14 days after chemical application using the following formula (Math. 1).

Assay [13] concerns Scirpus juncoides. Described as above. The note with it: 120 g per 10 ares, 14 days after application. As to the method: as §5
as §6, with “(Lindernia pyxidaria” for “(Lindemia pyxidaria,”, “120” for “7.5”
as §8

Assay [14] deals with Echinochloa crus-galli. Nature of the assay: Test Example 4: herbicidal effect test by stem and leaf treatment in upland field. The note with it: 7 days after sowing, 120 g per 10 ares, 14 days after application. On the procedure:
as §4
as §3, with “Seven days” for “One day”

Assay [15] deals with Digitaria ciliaris. The description is as above. The note with it: 7 days after sowing, 120 g per 10 ares, 14 days after application. On the procedure: as §4
as §3, with “Seven days” for “One day”

The test system of assay [16] is Echinochloa crus-galli var. formosensis. In words: Test Example 6: herbicidal effect test by application during growth period of paddy rice. To be noted: 7 days after sowing, 7.5 g per 10 ares, 14 days after application. As to the method: as §1
as §6, with “Seven days after sowing,” for “Immediately thereafter,”, “ares. The test was conducted in duplicate for each chemical concentration group, and the herbicidal effect was evaluated 14 days after chemical application using the same criteria as in Test Example 1.” for “ares.”

In assay [17] the test system is Monochoria vaginalis. The assay is described as above. The note with it: 7 days after sowing, 7.5 g per 10 ares, 14 days after application. As to the method: as §1
as §6, with “Seven days after sowing,” for “Immediately thereafter,”, “ares. The test was conducted in duplicate for each chemical concentration group, and the herbicidal effect was evaluated 14 days after chemical application using the same criteria as in Test Example 1.” for “ares.”

Assay [18] relates to Digitaria ciliaris. Nature of the assay: Test Example 7: herbicidal effect test by soil application in upland field. To be noted: 1 day after sowing, 7.5 g per 10 ares, 14 days after application. On the procedure: as §2
as §3, with “7.5” for “120”

Assay [19] relates to Monochoria vaginalis. In words: Test Example 5: herbicidal effect test by soil application in paddy rice. The note with it: 7.5 g per 10 ares, 14 days after application. On the procedure: as §5, §6, §7
Assay [20] deals with Scirpus juncoides. Nature of the assay: Test Example 2: herbicidal effect test by application during growth period of paddy rice. To be noted: 7 days after sowing, 120 g per 10 ares, 14 days after application. As to the method: as §1
as §6, with “Seven days after sowing,” for “Immediately thereafter,”, “120” for “7.5”, “ares. The test was conducted in duplicate for each chemical concentration group, and the herbicidal effect was evaluated 14 days after chemical application using the same criteria as in Test Example 1.” for “ares.”

For assay [21], the system named is Monochoria vaginalis. Described as above. To be noted: 7 days after sowing, 120 g per 10 ares, 14 days after application. As to the method: as §1
as §6, with “Seven days after sowing,” for “Immediately thereafter,”, “120” for “7.5”, “ares. The test was conducted in duplicate for each chemical concentration group, and the herbicidal effect was evaluated 14 days after chemical application using the same criteria as in Test Example 1.” for “ares.”

Assay [22] has as its system Monochoria vaginalis. In words: Test Example 1: herbicidal effect test by soil application in paddy rice. The note with it: 120 g per 10 ares, 14 days after application. On the procedure:
as §5
as §6, with “(Lindernia pyxidaria” for “(Lindemia pyxidaria,”, “120” for “7.5”
as §8

Regarding `C=C1C(OCc2ccccc2C)C2(C)CCC1(C(C)C)O2` (stereo not drawn), in assay [1], the inhibition (commonly the share of the control response that was lost under treatment) at 75 g/ha was found to be 20%.

Take `CC(C)[C@]12C[C@@H](OCc3ccccc3C(F)(F)F)[C@](C)(CC1=O)O2` [2-29, (1R,4S5R)-1-isopropyl-4-methyl-5-((2-(trifluoromethyl)benzyl)oxy)-7-oxabicyclo[2.2.1]heptan-2-one]: the weed inhibition rate in assay [2], in assay [3], in [4], in [5], in assay [6] and in assay [7] was no less than 80% each time. In addition, the weed inhibition rate in assay [8], in assay [9], in [10], in assay [11], in [12] and in [13] was no less than 80% each time. Also, the weed inhibition rate in [14] and in [15] was no less than 80% throughout.

Turning to `CC(C)C1C[C@]2(C)O[C@@]1(C(C)C)C[C@H]2OCc1ccccc1F` (stereo partly drawn) [1-133, (1S,2R,4R)-2-[(2-fluorobenzyl)oxy]-4,5-isopropyl-1-methyl-7-oxabicyclo[2.2.1]heptane], the weed inhibition rate in [3], in assay [5], in assay [16], in [17], in [6] and in [8] was no less than 80% each time. Also, the weed inhibition rate in assay [18], in assay [9], in [10], in [19], in assay [11] and in assay [20] was no less than 80% each time. Moreover, the weed inhibition rate in [21], in [12], in assay [13], in assay [22], in assay [14] and in [15] was no less than 80% throughout.
